According to PubChem BioAssay (NCI):
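Values below derive from 48-hour exposures of cells grown in 96-well plates, with endpoints linearly interpolated between the two concentrations bracketing the appropriate inhibition level. Abbreviation: GI50, concentration required for 50% inhibition of growth. TGI marks complete inhibition of growth.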

tested on: K-562 leukemia; test: NCI-60 cell line screen, 48 h

Question: With `Cc1ccccc1-n1c(=O)c2ncn(CCCl)c2n(-c2ccccc2C)c1=S` as the compound, how does the TGI read?
Answer: > 100 µM

tested on: MDA-N; test: NCI-60 cell line screen, 48 h

Question: Which TGI does the source give for `O=c1[nH][nH]c(=O)n1Cc1ccccc1Cn1c(=O)[nH][nH]c1=O` here?
Answer: > 100 µM

Question: How did the TGI turn out when `CCNC(=S)N/N=C/c1cc([N+](=O)[O-])ccc1O` was run?
Answer: > 100 µM

Question: With `CCOC(=O)c1c2ccccc2n2c(N)c(C(N)=O)nnc12` as the compound, how does the TGI read?
Answer: > 100 µM

Question: How did the TGI turn out when `Cc1cc(N(CCC#N)CCC#N)ccc1/C(N=Nc1ccc(Cl)cc1)=N\NC(=O)c1ccccc1` was run?
Answer: 74.2 µM

Question: How did the TGI turn out when `CCc1ccc(CCN2CCCCC2)nc1` was run?
Answer: > 100 µM

Question: For `CC(C)C1/C(=N/O)CC(c2ccccc2)N(N=O)C1c1ccccc1` (configuration not stated), which TGI is on record?
Answer: > 100 µM

Question: With `CC1(C)N=C(/C(Cl)=[N+](/[O-])C(=O)c2ccc(F)cc2)C(C)(C)N1O` as the compound, how does the TGI read?
Answer: 29.9 µM

Question: Which TGI does the source give for `COC(=O)[C@H](Cc1c[nH]c2ccccc12)NP(=O)(O)OCC1C=CC(n2cc(C)c(=O)[nH]c2=O)O1` (some centres not stated) here?
Answer: > 100 µM

Question: `COc1cc(/C=C2\S/C(=N/Nc3nc(-c4ccc(Br)cc4)cs3)NC2=O)cc(OC)c1OC` was tested. Which TGI did it give?
Answer: 75.1 µM

Question: Which GI50 does the source give for `CCCNC1=C2CC(C)CC(OC)[C@@H](O)[C@H](C)/C=C(\C)C(OC(N)=O)C(OC)/C=C\C=C(/C)C(=O)NC(=CC1=O)C2=O` (some centres not stated) here?
Answer: 0.0757 µM

Question: And the TGI?
Answer: 17.1 µM

Question: How did the TGI turn out when `CCC1(O)CC2CC(=O)OC2C1O` (configuration not stated) was run?
Answer: > 100 µM

Question: With `Cc1ccc(SCC(CSCCO)OCn2cnc3c2NC(N)=NC32OCCO2)cc1` (configuration not stated) as the compound, how does the TGI read?
Answer: > 100 µM

Question: With `N#CC1=C(N)N(c2ccccc2)C(c2ccco2)C1(C#N)C#N` (configuration not stated) as the compound, how does the TGI read?
Answer: > 100 µM

Question: How did the TGI turn out when `Cc1cc(=O)[nH]c(NN2C(Cl)C(=O)C2c2ccccc2O)n1` (configuration not stated) was run?
Answer: > 100 µM

Question: `CC[C@@]1(C[C@H]2C[C@@]3(C(=O)OC)c4[nH]c5ccccc5c4CCN3C2=O)COC2(CCCCC2)O1` was tested. Which TGI did it give?
Answer: > 100 µM

Question: `COc1ccc2c(=O)c(O)c(-c3ccc(OC)c(OC)c3)oc2c1` was tested. Which TGI did it give?
Answer: > 100 µM

Question: `COc1ccc(C(OCC2OC(n3cc(C)c(=O)[nH]c3=O)CC2n2cc(Cn3cc(I)c(=O)[nH]c3=O)nn2)(c2ccccc2)c2ccccc2)cc1` (configuration not stated) was tested. Which TGI did it give?
Answer: > 100 µM

Question: How did the TGI turn out when `C=C(C1=CC(=O)C(C)(C)O1)[C@@H]1CC=C([C@@H]2CC[C@H]3[C@@]2(C)CC[C@H]2C(C)(C)C(=O)[C@H](O)C[C@]32C)[C@H](O)O1` was run?
Answer: 3.58 µM

Question: For `CC1=CC2C(O1)C1C(=O)C=CC(=O)C1=CC2[N+](=O)[O-]` (configuration not stated), which TGI is on record?
Answer: 65.8 µM

Question: `Cc1cn(C2CC(n3cc(Cn4cc(I)c(=O)[nH]c4=O)nn3)C(CO)O2)c(=O)[nH]c1=O` (configuration not stated) was tested. Which TGI did it give?
Answer: > 100 µM

Question: For `O=C1CCC(=O)N1n1c(Cc2ccccc2)n[nH]c1=O`, which TGI is on record?
Answer: > 100 µM

Question: Which TGI does the source give for `O=C(O)CN(CC(=O)O)C1CCCCC1N(CC(=O)O)CC(=O)NCCN=C=S` (configuration not stated) here?
Answer: > 100 µM

Question: With `Cc1nc(C(N)=S)sc1/C(CC(=O)C(=O)Nc1cccc2ccc(O)cc12)=N\NC(=O)c1ccncc1` as the compound, how does the TGI read?
Answer: > 100 µM

Question: Which TGI does the source give for `Oc1cc2c3c(c1)c1cc4c(cc1c[n+]3CC2)OCO4` here?
Answer: > 100 µM

Question: For `Cc1cn(C2CC(N(O)C(N)=O)C(CO)O2)c(=O)[nH]c1=O` (configuration not stated), which TGI is on record?
Answer: > 100 µM

Question: How did the TGI turn out when `O=C(O)c1cccc2c1/C(=N/Nc1ccccc1)CC2` was run?
Answer: > 100 µM

Question: With `O=C(Cc1cccs1)N[C@@H]1C(=O)N2C(C(=O)OC(c3ccccc3)c3ccccc3)=C(CO)CS[C@H]12` as the compound, how does the TGI read?
Answer: > 100 µM

tested on: HOP-92 NSCLC; test: NCI-60 cell line screen, 48 h

Question: `O=c1[nH][nH]c(=O)n1Cc1ccccc1Cn1c(=O)[nH][nH]c1=O` was tested. Which TGI did it give?
Answer: > 100 µM

Question: Which TGI does the source give for `CC1C=C(CCCCCCCCCCCC[C@@H](O)[C@@H]2CC[C@@H]([C@@H]3CC[C@@H](C(O)CCCCCCCCCCCCC4=C[C@H](C)OC4=O)O3)O2)C(=O)O1` (some centres not stated) here?
Answer: > 100 µM

Question: `COc1cc([C@@H]2OCC3C(c4ccc5c(c4)OCO5)OCC32)cc(OC)c1OC` (some centres not stated) was tested. Which TGI did it give?
Answer: 60.9 µM

Question: How did the TGI turn out when `CCc1ccc(CCN2CCCCC2)nc1` was run?
Answer: > 100 µM

Question: `CNC(=O)C(C)C1CCC2(C)C=CC(=O)C(C)=C2C1O` (configuration not stated) was tested. Which TGI did it give?
Answer: > 100 µM

Question: `CC(C)C1/C(=N/O)CC(c2ccccc2)N(N=O)C1c1ccccc1` (configuration not stated) was tested. Which TGI did it give?
Answer: 78.6 µM

Question: With `CC1(C)N=C(/C(Cl)=[N+](/[O-])C(=O)c2ccc(F)cc2)C(C)(C)N1O` as the compound, how does the TGI read?
Answer: 40 µM

Question: With `COC(=O)[C@H](Cc1c[nH]c2ccccc12)NP(=O)(O)OCC1C=CC(n2cc(C)c(=O)[nH]c2=O)O1` (some centres not stated) as the compound, how does the TGI read?
Answer: > 100 µM

Question: `COc1cc(/C=C2\S/C(=N/Nc3nc(-c4ccc(Br)cc4)cs3)NC2=O)cc(OC)c1OC` was tested. Which TGI did it give?
Answer: 18.3 µM

Question: With `CCCNC1=C2CC(C)CC(OC)[C@@H](O)[C@H](C)/C=C(\C)C(OC(N)=O)C(OC)/C=C\C=C(/C)C(=O)NC(=CC1=O)C2=O` (some centres not stated) as the compound, how does the GI50 read?
Answer: 16.8 µM

Question: `C[n+]1c2ccccc2c(/C=N\NS(=O)(=O)c2ccc(O)c(C(=O)O)c2)c2ccccc21` was tested. Which TGI did it give?
Answer: > 100 µM

Question: How did the TGI turn out when `O=C(Nc1ccc(C2=NCCN2)cc1)c1cncc(C(=O)Nc2ccc(C3=NCCN3)cc2)c1` was run?
Answer: > 100 µM

Question: For `CCC1(O)CC2CC(=O)OC2C1O` (configuration not stated), which TGI is on record?
Answer: > 100 µM

Question: `Cc1ccc(SCC(CSCCO)OCn2cnc3c2NC(N)=NC32OCCO2)cc1` (configuration not stated) was tested. Which TGI did it give?
Answer: > 100 µM

Question: Which TGI does the source give for `CC(=O)Nc1ccc(-c2nnc(SCC(=O)Nc3ccc([N+](=O)[O-])cc3)o2)cc1` here?
Answer: 37.7 µM

Question: With `N.N.N.N.O=[N+]([O-])[O-].[Co+3].[N-]=[N+]=[N-].[N-]=[N+]=[N-]` as the compound, how does the TGI read?
Answer: > 100 µM

Question: With `Cc1cc(=O)[nH]c(NN2C(Cl)C(=O)C2c2ccccc2O)n1` (configuration not stated) as the compound, how does the TGI read?
Answer: 32.4 µM

Question: With `CC(C)c1ccc(/C=C2/C=C(c3ccc4ccccc4c3)OC2=O)cc1` as the compound, how does the TGI read?
Answer: > 100 µM
